Test results reported in US20160303069A1, “MEDICAL USE OF COMPOUND FROM GARCINIA ESCULENTA” (Hong Kong Baptist University, priority 2015, published 2016).

How the values were obtained:
KYSE150 cells [1] = assay: colony formation / cell proliferation assay; type: cell-based, human; conditions: 5, 10, 15, 20 μM, 48 hours treatment, 7 days incubation
Experimental: (§1) Eca109 and KYSE150 are cultured in RPMI1640 medium supplemented with 10% fetal calf serum, 100 U/ml penicillin and 100 μg/ml streptomycin in a humidified atmosphere containing 5% CO2 at 37° C. 0.25% trypsin is used for digestion and passage; cells under logarithmic growth phase are used in the experiment.
(§2) Eca109 (500 cells/well) and KYSE150 (250 cells/well) are seeded in a 6-well plate. […] On the 7th day, cells are fixed with 4% paraformaldehyde, stained with 0.1% crystal violet and imaged under a light microscope.

Eca109 cells [2] = assay: colony formation / cell proliferation assay; type: cell-based, human; conditions: 5, 10, 15, 20 μM, 48 hours treatment, 7 days incubation
Experimental: as §1, §2

KYSE150 lung metastasis = assay: lung metastasis animal model (KYSE150 cells injected intravenously); type: in vivo; conditions: nude mice, 20 mg/kg every another day for 35 days; for number of lung tumor nodules / size / area of lung nodules (metastatic foci): HE staining, 20 mg/kg
Experimental: as §1, with “incubator” for “atmosphere”
KYSE150 cells (1×10^6 cells/mouse) are intravenously injected into 6-week old male nude mice (Experimental Animal Center of the Chinese Academy of Science, Shanghai, China). The 6-week old male nude mice weight 20 g each. After injection of the cancer cells, the mice are divided into 3 groups randomly (n=8 in each group). DMSO, GPX (20 mg/kg) or 5-FU (20 mg/kg) are administered to the mice intraperitoneally every another day for 35 days. Body weight is measured every 2 days. 35 days later, lungs are removed and weighted. Using Bouin's solution, lungs are fixed, sliced and stained with HE to count number of lung nodules.

esophageal cancer = assay: apoptosis in vitro; type: cell-based
KYSE150 cells [3] = assay: matrigel transwell cell invasion assay; type: cell-based, human; conditions: 5, 10, 15, 20 μM, 24 hours
KYSE150 cells [4] = assay: scratch (wound healing) migration assay; type: cell-based, human
Experimental: as §1
(§3) Eca109 and KYSE150 under logarithmic growth phase are seeded into 24-well plate (1×10^5 cells/well). When monolayer of cell is formed, use a sterile 100 μl pipette tip to create a scratch on the monolayer, and fresh medium containing different concentration of Griffipavixanthone (GPX) or Sorafenib (SFB) (20 μM/well) are added. Cells are observed at 12 hours and 36 hours after scratch and imaged under IX83 microscope (Olympus, Tokyo, Japan).

Eca109 cells [5] = assay: scratch (wound healing) migration assay; type: cell-based, human
Experimental: as §1, §3

KYSE150 cells [6] = assay: cell cycle analysis by PI flow cytometry; type: cell-based, human; conditions: 48 hours
Experimental: as §1, with “passage,” for “passage;”
[…] Cells are then harvested and fixed in 70% cold ethanol and stored 4° C. overnight. The cells are incubated with PI containing RNase A for 30 mins at 37° C., and are analyzed by flow cytometry (BD Biosciences Inc., Franklin Lakes, N.J., USA).

Eca109 cells [7] = assay: matrigel transwell cell invasion assay; type: cell-based, human; conditions: 5, 10, 15, 20 μM, 24 hours
Experimental: as §1
Transwell chambers (8 μm pore size) used in cell migration assay are pre-incubated with matrigel for 2 hours, Eca109 (1×10^5 cells/well) are seeded onto serum-free upper chambers, lower chamber contains 10% FBS medium. Cells are treatment with GPX for 24 hours, thereafter, medium is discarded, cotton swab is used to gently remove the non invaded cells in the upper chamber. Invaded cells in the lower chamber are fixed with 4% paraformaldehyde, stained with 0.1% crystal violet and scored under a light microscope. Experimental data are expressed as mean±standard deviation, using SPSS18.0 statistical software for analysis, One-Way ANOVA for variance, comparison using Student t test, *P<0.05, **P<0.01, ***P<0.001 is considered as statistically significant difference.

Eca109 cells [8] = assay: cell cycle analysis by PI flow cytometry; type: cell-based, human; conditions: 48 hours
Experimental: as §1, with “passage,” for “passage;”
Eca109 and KYSE150 (2×10^5 cells/well) are seeded to a 6-well place and treated with GPX or SFB (20 μM/well) for 48 hours. Cells are then harvested and fixed in 70% cold ethanol and stored 4° C. overnight. The cells are incubated with PI containing RNase A for 30 mins at 37° C., and are analyzed by flow cytometry (BD Biosciences Inc., Franklin Lakes, N.J., USA).

KYSE150 cells [9] = assay: transwell cell migration assay; type: cell-based, human; conditions: 5, 10, 15, 20 μM, 24 hours
Experimental: as §1
(§4) Eca109 and KYSE150 (5×10^4 cells/well) are seeded to the upper chamber (8 μm pore size) of the transwell chambers. The upper chamber contains serum-free; the lower chamber contains 10% FBS. Cells are treated with GPX for 24 hours, medium is then removed, non-migrated cells found on the upper chamber are removed using a cotton swab. Migrated cells found on the bottom chamber are fixed with 4% paraformaldehyde, stained with 0.1% crystal violet and scored under a light microscope in five random fields as shown in FIG. 3. Experimental data are expressed as mean±standard deviation, using SPSS18.0 statistical software for analysis, One-Way ANOVA for variance, comparison using Student t test, **P<0.01, ***P<0.001 is considered as statistically significant difference.

Eca109 cells [10] = assay: transwell cell migration assay; type: cell-based, human; conditions: 5, 10, 15, 20 μM, 24 hours
Experimental: as §1, §4

[11] = different concentrations of GPX, observed 12 h and 36 h after scratch
[12] = SFB 20 μM/well, positive control

Q: What does the source list for `CC1=C[C@H]2c3c(c(O)c(O)c4oc5cc(O)cc(O)c5c(=O)c34)[C@H](c3cc(O)c(O)c4oc5cc(O)cc(O)c5c(=O)c34)[C@H]2C(C)(C)C1` [GPX, Griffipavixanthone]?
A: inhibition of cell proliferation (colony formation) (KYSE150 cells [1]): inhibits cell proliferation of Eca109 and KYSE150 at 5, 10, 15, 20 μM in a dose dependent manner; inhibition of cell proliferation (colony formation) (Eca109 cells [2]): inhibits cell proliferation of Eca109 and KYSE150 at 5, 10, 15, 20 μM in a dose dependent manner; inhibition of lung metastasis of KYSE150 (KYSE150 lung metastasis): significantly inhibits lung metastasis of KYSE150; lung weight (KYSE150 lung metastasis): reduced lung weight; number of lung tumor nodules (KYSE150 lung metastasis): reduced number of lung tumor nodules; size / area of lung nodules (metastatic foci) (KYSE150 lung metastasis): metastatic foci are sparse and smaller; number of lung tumor nodules (KYSE150 lung metastasis; listed as Griffipavixanthone): reduces lung nodules; size / area of lung nodules (metastatic foci) (KYSE150 lung metastasis; listed as Griffipavixanthone): reduces lung nodules and area of pulmonary nodules in lung tissues; promotion of apoptosis (esophageal cancer): without promoting apoptosis in vitro; inhibition of cell invasion (KYSE150 cells [3]): inhibits cell invasion of Eca109 and KYSE150 at 5, 10, 15, 20 μM in a dose dependent manner; inhibition of cell scratch migration in wound healing (KYSE150 cells [4]; [11]): inhibits cell migration of Eca109 and KYSE150 in wound healing in a dose dependent manner; inhibition of cell scratch migration in wound healing (Eca109 cells [5]; [11]): inhibits cell migration of Eca109 and KYSE150 in wound healing in a dose dependent manner; G2/M cell cycle arrest (KYSE150 cells [6]; 5, 10, 15, 20 μM): induces G2/M cell cycle arrest in Eca109 and KYSE150 at 5, 10, 15, 20 μM in a dose dependent manner; inhibition of cell invasion (Eca109 cells [7]): inhibits cell invasion of Eca109 and KYSE150 at 5, 10, 15, 20 μM in a dose dependent manner; G2/M cell cycle arrest (Eca109 cells [8]; 5, 10, 15, 20 μM): induces G2/M cell cycle arrest in Eca109 and KYSE150 at 5, 10, 15, 20 μM in a dose dependent manner; inhibition of cell migration (transwell) (KYSE150 cells [9]): inhibits cell migration of Eca109 and KYSE150 at 5, 10, 15, 20 μM in a dose dependent manner; inhibition of cell migration (transwell) (Eca109 cells [10]): inhibits cell migration of Eca109 and KYSE150 at 5, 10, 15, 20 μM in a dose dependent manner

Q: Which “inhibition of cell scratch migration in wound healing” value (KYSE150 cells [4]; [12]) does the source give for `CNC(=O)c1cc(Oc2ccc(NC(=O)Nc3ccc(Cl)c(C(F)(F)F)c3)cc2)ccn1` [SFB, Sorafenib, reference compound] here?
A: significantly inhibit cell scratch migration

Q: What about the “inhibition of cell scratch migration in wound healing” value (Eca109 cells [5]; [12]) of the same compound?
A: significantly inhibit cell scratch migration

Q: What about the “G2/M cell cycle arrest” value (KYSE150 cells [6]; [12]) of the same compound?
A: the results are in line with SFB

Q: And the “G2/M cell cycle arrest” value (Eca109 cells [8]; [12])?
A: the results are in line with SFB
